Experiment [1] has as its system child suffering from juvenile chronic polyarthritis. Nature of the experiment: Case No. 3: clinical course of juvenile chronic polyarthritis. The class given is in vivo, human. Particulars: 1 tbl of 250 mg a day, before homeopathic treatment; disease worsens.
The test system of experiment [2] is patient presenting with hyperthyroidism due to multinodular thyroid hyperplasia, and morning allergic rhinitis. Nature of the experiment: Case No. 2: TSH / free T4 and allergic rhinitis in a patient with hyperthyroidism. The class given is in vivo, human. Particulars: for course of hyperthyroidism / thyroid hormone level under treatment: a few days of Basdene, 10 days of Neomercazole; for TSH: normal 0.2 to 4; for T4f: normal 10 to 25. The text has this: A patient presenting with hyperthyroidism due to multinodular thyroid hyperplasia, and morning allergic rhinitis.
The normal levels are 0.2 to 4 for TSH and 10 to 25 for T4f. The TSH is abnormally low and the free T4 abnormally high. The patient receives treatment with a synthetic thyroid inhibitor, namely Basdene 9 on its own, starting on February 22, at increasing doses of 1 tbl on the 1st day, 2 tbl on the 2nd day and then 3 tbl per day. on 3 March TSH: 0.02
On March 7, the patient is seen again by the consultant and, in place of Basdene®, Neo-mercazole® is prescribed at doses of 3 tbl 3 times a day:
On March, 20 the patient is seen again and the following is added to the Neo-mercazole treatment for the allergic rhinitis:
Natrium muriaticum 6DH, 3 tbl/1 for 7 days, then
Natrium muriaticum 4CH, 3 granules/1 for 15 days.
In order to know whether it is the Natrium muriaticum or the Neomercazole 9 which has normalized the thyroid functions, the Neo-mercazole® is suddenly withdrawn, which, if it is the Neo-mercazole® which has lowered the T4f, should have the effect of raising it immediately to 30, and the regular administration of Natrium muriaticum 4CH is continued on April 13.
Natrium muriaticum 6DH: 3tbl/day from March 20 to April 11, then Natrium muriaticum 4CH: 3 granules/day from April 11 to April 28. On April 28, the patient is seen again by the consultant and the prescribed dose of Natrium muriaticum is further modified, being increased to Natrium muriaticum 5CH: 3 granules a day. The Neo-mercazole® was of course never restarted. The effect of this change in doses of Natrium muriaticum is to further lower the thyroid hormone:
The following dose of Natrium Muriaticum 5CH is still continued from this time on: 3 granules a day.
There was no cancer on the operated part. On August 1 the result of this operation is a T4f of 13.8, which is now near the lower limit of the norm (the norm being 10 to 25). A tendency towards hypothyroidism might be feared.

Setting [3] is: on 17 March, after 10 days of Neo-mercazole 3 tbl 3 times a day.

In the case of `COc1ccc2cc([C@H](C)C(=O)O)ccc2c1` [Naprosyn], in experiment [1], the “suppression of polyarticular symptoms” value was “not sufficient to suppress the symptoms”.
As to `CCOC(=O)n1ccn(C)c1=S` [Neo-mercazole], the “course of hyperthyroidism / thyroid hormone level under treatment” value in experiment [2] is “no improvement”. Besides, in experiment [2] (setting [3]), the TSH stood at 0.02 and the T4f worked out at 33.8.
With `Oc1cc(Cc2ccccc2)nc(S)n1` [Basdene], the “course of hyperthyroidism / thyroid hormone level under treatment” value in experiment [2] is “remained identical and even become slightly worse”. In experiment [2] (on 3 March, Basdene on its own from February 22, up to 3 tbl per day, 0.02 before treatment), this molecule yielded a TSH of 0.02. Moreover, the T4f in experiment [2] (on 3 March, Basdene on its own from February 22, up to 3 tbl per day, 35 before treatment) is on record as 36.8.
